This note sets out measurements from patent publication US20220112225A1, “ANANDAMIDE COMPOUNDS” (priority 2019, published 2022).

Data set [1] in a line: IV JVC rat PK study at 3 mg/kg. The class given is in vivo. To be noted: male Sprague Dawley rats, 3 mg/kg IV. As for the experimental part:
Compound 3 was intravenously dosed at 3 mg/kg into a group of 3 individually housed, normally fed male Sprague Dawley rats that had been fitted with jugular vein catheters (JVCs). Dosing was performed with 2 mL/kg dosing volumes with 5% DMSO 95% water used as a dosing vehicle. Serial blood samples (150 μL) were taken from each animal at each time point post dose (0.08 h, 0.25 h, 0.5 h, 1 h, 2 h, 4 h, 8 h, and 24 h) into heparinised Eppendorf tubes (containing 5 μL heparin) on ice containing an equal quantity of water. Two 100 μL aliquots were then placed in duplicate 96 well plates on dry ice. Samples were stored in the freezer at −20° C. until bioanalysis.
(§1) Samples were defrosted and acetonitrile (containing internal standard) was used to precipitate the proteins. All the samples were mixed, centrifuged and the supernatants analysed by LC-MS-MS according to the following procedures: • 1. 20 μL plasma was transferred to a v-bottom 96-well plate. • 2. 80 μL acetonitrile (ACN) containing IS was added to each well. • 3. The plate was sealed and gently mixed for approximately 30 s. • 4. Plates were centrifuged for 10 min at 3500 rpm. • 5. 50 μL supernatant was transferred to a fresh v-bottom 96-well plate containing 100 μL MilliQ water.
(§2) Plates were thermo-sealed and stored at 4° C. until analysis. The resulting PK parameters are shown below in Table 1.

Data set [2] is described as follows: PO JVC rat PK study at 10 mg/kg. The format is in vivo. To be noted: male Sprague Dawley rats. As for the experimental part:
Compound 3 was orally dosed at 10 mg/kg to a group of 3 individually housed male Sprague Dawley rats that were fasted overnight and fed 4 h post-dose, the rats were fitted with JVCs. Dosing was performed with 5 mL/kg dosing volumes with 5% DMSO 95% water used as a dosing vehicle. Serial blood (150 μL) samples were taken from each animal at each timepoint (0.25 h, 0.5 h, 1 h, 2 h, 4 h, 6 h, 8 h, and 24 h) into heparinised Eppendorf tubes (containing 5 μL heparin) on ice containing an equal quantity of water. Two 100 μL aliquots were then placed in duplicate 96 well plates on dry ice. Samples were stored in the freezer at −20° C. until bioanalysis.
as §1, §2

Data set [3] in a line: PO JVC rat terminal PK study at 20 mg/kg (tissue distribution). The format is in vivo. Particulars: rat, 20 mg/kg PO; for Brain to Blood Ratio (corrected): corrected for 15 μL of blood per gram of brain tissue. How it is done:
Compound 3 was orally dosed at 20 mg/kg to a group of nine, jugular vein cannulated, individually housed male Sprague Dawley rats that were fasted overnight and fed 4 h post-dose to assess its tissue distribution profile. Dosing was performed with 5 mL/kg dosing volumes with 5% DMSO, 95% water used as a dosing vehicle. Terminal blood samples (>230 μL) were taken from groups of 3 animals at each of 3 time-points post dose (1 h, 2 h, and 4 h) by cardiac puncture under CO2 into heparinised Eppendorf tubes (containing 5 μL heparin) on ice containing an equal quantity of water. Two 100 μL aliquots were then placed in duplicate 96 well plates on dry ice. Immediately after blood sampling, brain and eye pair samples were excised, weighed, rinsed, blotted, and snap frozen in liquid N2. Samples were stored in the freezer at −20° C. until bioanalysis.
Tissue samples were weighed and a volume of water 3 times the mass added to samples before homogenization. In the case of eyeballs the lens could not be homogenized, but all other tissues homogenized. The resulting data (tissue distribution parameters) are shown below in Table 2.

A short description of data set [4]: In vitro brain homogenate stability, mouse. The class given is in vitro ADME. How it is done:
Fresh rodents brains were snap frozen immediately after collection and the assay performed on the same day. Brains were pre-incubated at 37° C. before being spiked with test compound at 1 μM. Samples were collected across 6 time points (0, 10, 20, 30, 45 and 60 minutes) and crashed in cold acetonitrile containing an internal standard (Leucine Enkephalin) and kept on ice until all samples had been collected. The samples were then shaken and centrifuged. 100 μL of supernatant was transferred to a plate containing 50 μL of MilliQ water and mixed. These plates were analyzed by LC-MS/MS over the 6 time points, where the percentage of test compound remaining was calculated using the peak area of the initial timepoint (T=0 minutes) as 100%. The natural log of the percentage remaining was then calculated. The natural log of the percentage remaining versus time (minutes) was plotted on a graph and the gradient of this graph was used to calculate the elimination rate constant (K), The half-life (t1/2) of test compound was calculated using the natural log of 2 divided by the elimination rate constant. The percentage of Compound 2 formed is reported below in Tables 4-6. FIGS. 9A-9F show results of the brain homogenate stability conducted with representative compounds of the Examples.

On to “2-(5Z,8Z,11Z,14Z)-icosa-5,8,11,14-tetraenamidoethyl (trimethylammonio) ethylphosphate [Compound 3]”, for which, in data set [1], the AUC0-inf is 2561.0 ng·h/mL, the AUC0-t turned out to be 2462.2 ng·h/mL, the CI worked out at 31 mL/min/kg and the distribution volume (Vdss) (commonly the apparent volume that relates the amount in the body to the concentration in plasma or blood) is 6.3 L/kg. Further, in data set [1], the t1/2 came out at 7.4 h. Moreover, in data set [2] (10 mg/kg PO), the AUC0-inf is 2426.6 ng·h/mL; the AUC0-t was 2348.5 ng·h/mL; the Cmax (usually the highest concentration seen after dosing) came out at 372 ng/mL; the Tmax (as a rule, the time at which the peak concentration occurs) was 2.5 h. For the same substance, the Bioavailability in data set [2] (10 mg/kg PO vs 3 mg/kg IV) is on record as 28 % F. In data set [3] (1 h), the “Brain to Blood Ratio (corrected)” value is 0.25. Also, in data set [3] (1 h post dose), the Blood amounted to 108.4 ng/mL, the Brain is 28.3 ng/g and the Eye is 1035.4 ng/g. Moreover, the “Brain to Blood Ratio (corrected)” value in data set [3] (2 h) amounted to 1.69. In addition, in data set [3] (2 h post dose), the Blood was determined as 16.7 ng/mL, the Brain came out at 28.5 ng/g and the Eye came out at 105.0 ng/g. Further, in data set [3] (4 h), the “Brain to Blood Ratio (corrected)” value worked out at 2.69. Moreover, in data set [3] (4 h post dose), the Blood was 12.8 ng/mL, the Brain is 34.6 ng/g and the Eye stood at 104.4 ng/g. The “Mouse t1/2” value in data set [4] (37° C., test compound at 1 μM) was found to be 1.67 h. In addition, the “Clearance in brain homogenate stability study (in words)” value in data set [4] (one hour incubation, increasing formation of Compound 2) is on record as “demonstrated a level of clearance”.
